Measured values reported in patent US6653300B2, “Pyrazole compounds useful as protein kinase inhibitors” (Vertex Pharmaceuticals Incorporated, priority 2000, dated 2003).
Read-outs that look alike come from different tables or passages of the source.

Key:
GSK-3β (AA 1-420) = molecular target: T1, GSK-3β (AA 1-420) (Homo sapiens, UniProt P49841); test: Ki determination for the inhibition of GSK-3 (coupled enzyme system); assay type: biochemical; conditions: 20 μM ATP, 20 nM GSK-3β, 30° C.
T1 construct: GSK-3β (AA 1-420)
T1 sequence (P49841 whole entry, the tested form may be a part): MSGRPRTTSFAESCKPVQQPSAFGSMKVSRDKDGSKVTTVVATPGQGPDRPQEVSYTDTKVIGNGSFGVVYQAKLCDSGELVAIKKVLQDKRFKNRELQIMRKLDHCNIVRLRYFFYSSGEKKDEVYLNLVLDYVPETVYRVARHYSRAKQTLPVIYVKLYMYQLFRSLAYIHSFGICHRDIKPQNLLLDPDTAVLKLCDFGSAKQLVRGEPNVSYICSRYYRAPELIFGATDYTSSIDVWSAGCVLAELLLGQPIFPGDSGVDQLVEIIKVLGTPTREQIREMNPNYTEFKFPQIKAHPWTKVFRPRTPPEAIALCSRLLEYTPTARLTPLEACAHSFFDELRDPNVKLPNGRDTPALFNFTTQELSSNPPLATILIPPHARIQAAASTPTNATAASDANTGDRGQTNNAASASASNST
Method in brief: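 GSK-3β (AA 1-420, 20 nM) was run in a pyruvate kinase/LDH-coupled NADH assay in 100 mM HEPES pH 7.5, 10 mM MgCl2, 25 mM NaCl, 1 mM DTT, 1.5% DMSO, with 300 μM phosphopeptide substrate. Compound (0.002–30 μM) was preincubated 10 min at 30° C, then 20 μM ATP was added.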

human Src kinase = molecular target: T2, human Src kinase (Homo sapiens, UniProt P12931); test: SRC inhibition assay (radioactivity-based or spectrophotometric assay); assay type: biochemical; conditions: recombinant human Src kinase, assay A or B
T2 construct: full length recombinant human Src kinase (from Upstate Biotechnology, cat. no. 14-117); purchased Upstate Biotechnology 14-117; host or cells: baculo viral cells
T2 sequence (P12931 whole entry): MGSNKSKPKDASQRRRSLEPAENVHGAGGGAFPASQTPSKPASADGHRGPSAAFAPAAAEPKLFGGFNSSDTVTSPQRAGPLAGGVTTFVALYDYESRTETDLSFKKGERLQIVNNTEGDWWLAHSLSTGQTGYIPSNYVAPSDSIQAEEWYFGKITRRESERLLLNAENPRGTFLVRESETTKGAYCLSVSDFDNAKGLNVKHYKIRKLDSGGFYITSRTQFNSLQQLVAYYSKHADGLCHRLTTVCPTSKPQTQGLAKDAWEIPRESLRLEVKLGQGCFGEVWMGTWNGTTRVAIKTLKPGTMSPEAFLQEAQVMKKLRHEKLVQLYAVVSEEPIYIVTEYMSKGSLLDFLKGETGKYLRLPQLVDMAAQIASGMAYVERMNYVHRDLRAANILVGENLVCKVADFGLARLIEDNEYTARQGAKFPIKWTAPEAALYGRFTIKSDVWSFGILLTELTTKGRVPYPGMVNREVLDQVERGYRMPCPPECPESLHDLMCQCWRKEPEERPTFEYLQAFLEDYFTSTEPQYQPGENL
Procedure: The compounds were evaluated as inhibitors of human Src kinase using either a radioactivity-based assay or spectrophotometric assay. The compounds were assayed as inhibitors of full length recombinant human Src kinase (from Upstate Biotechnology, cat. no. 14-117) expressed and purified from baculo viral cells. […] P-0275). […] In a typical assay, all the reaction components with the exception of ATP were pre-mixed and aliquoted into assay plate wells. […] The assay plate was incubated at 30° C. for 10 min before initiating the reaction with ^33P-ATP. After 20 min of reaction, the reactions were quenched with 150 μl of 10% trichloroacetic acid (TCA) containing 20 mM Na3PO4. The quenched samples were then transferred to a 96-well filter plate (Whatman, UNI-Filter GF/F Glass Fiber Filter, cat no. 7700-3310) installed on a filter plate vacuum manifold. Filter plates were washed four times with 10% TCA containing 20 mM Na3PO4 and then 4 times with methanol. 200 μl of scintillation fluid was then added to each well. The plates were sealed and the amount of radioactivity associated with the filters was quantified on a TopCount scintillation counter. The radioactivity incorporated was plotted as a function of the inhibitor concentration. The data was fitted to a competitive inhibition kinetics model to get the Ki for the compound. The ADP produced from ATP by the human recombinant Src kinase-catalyzed phosphorylation of poly Glu-Tyr substrate was quanitified using a coupled enzyme assay (Fox et al (1998) Protein Sci 7, 2249). In this assay one molecule of NADH is oxidised to NAD for every molecule of ADP produced in the kinase reaction. The disappearance of NADH can be conveniently followed at 340 nm. […] In a typical assay, all the reaction components with the exception of ATP were pre-mixed and aliquoted into assay plate wells. […] The absorbance change at 340 nm with time, the rate of the reaction, was monitored on a molecular devices plate reader. The data of rate as a function of the inhibitor concentration was fitted to competitive inhibition kinetics model to get the Ki for the compound.

Aurora-2 = molecular target: T3, Aurora-2 (Homo sapiens, UniProt O14965); test: Ki determination for the inhibition of Aurora-2 (coupled enzyme assay); assay type: biochemical; conditions: 70 nM Aurora-2, 30° C.
T3 sequence (O14965 1-403): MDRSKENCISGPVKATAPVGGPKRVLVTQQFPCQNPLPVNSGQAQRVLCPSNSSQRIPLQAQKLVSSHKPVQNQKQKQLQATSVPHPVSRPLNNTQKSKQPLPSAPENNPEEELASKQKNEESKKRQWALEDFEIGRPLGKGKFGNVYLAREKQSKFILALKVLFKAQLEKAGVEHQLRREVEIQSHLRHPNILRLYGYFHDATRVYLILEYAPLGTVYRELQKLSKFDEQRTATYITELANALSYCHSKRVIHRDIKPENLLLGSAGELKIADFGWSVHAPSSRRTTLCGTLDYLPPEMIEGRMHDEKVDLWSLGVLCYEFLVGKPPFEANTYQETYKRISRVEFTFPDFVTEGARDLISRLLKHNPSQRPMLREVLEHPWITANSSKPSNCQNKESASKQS
Method in brief: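 Ki came from reaction rates plotted against inhibitor concentration, with rates taken as A340 decrease over 5 min at 30° C. Enzyme (70 nM final) was added after 10 min compound preincubation; stock buffer held […], 800 μM LRRASLG, PK/LDH coupling, pH 7.5.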

Structure (SMILES) | Ki (GSK-3β (AA 1-420)) [nM] | Ki (human Src kinase; read-out: Ki value on SRC) [nM] | Ki (Aurora-2) [nM] | melting point | Ki (human Src kinase; read-out: Ki value for SRC) [nM]
CCS(=O)(=O)Nc1ccc(Sc2nc(Nc3cc(C)[nH]n3)c3ccccc3n2)cc1 [IIa-55, [2-(4-Ethylsulfonylamino-phenylsulfanyl)-quinazolin-4-yl]-(5-methyl-2H-pyrazol-3-yl)-amine] | 100 to 1000 |  | < 100 | 279 to 280 °C | 1000 to 6000
CNCC(=O)Nc1ccc(Sc2nc(Nc3cc(C)[nH]n3)c3ccccc3n2)cc1 [IIa-77, {2-[4-(2-Methylamino-acetylamino)-phenylsulfanyl]-quinazolin-4-yl}-(5-methyl-2H-pyrazol-3-yl)-amine] | 1000 to 7000 |  | < 100 | 242 to 244 °C | 1000 to 6000
Cc1ccc(Cl)c(Nc2nc(Nc3cc(C)[nH]n3)c3ccccc3n2)c1 [IIc-51, [2-(2-Chloro-5-methylphenylamino)-quinazolin-4-yl]-(5-methyl-2H-pyrazol-3-yl)-amine] | 100 to 1000 | < 100 | < 100 | 246 to 247 °C | 
c1ccc2cc(Oc3nc(Nc4cc(C5CC5)[nH]n4)c4ccccc4n3)ccc2c1 [IIb-1, (5-Cyclopropyl-2H-pyrazol-3-yl)-[2-(naphthalen-2-yloxy)-quinazolin-4-yl]-amine] | < 100 | < 100 | < 100 | 327 to 328 °C | 
CC(=O)Nc1ccc(Sc2nc(Nc3cc(C)[nH]n3)c3ccc(O)cc3n2)cc1 [IIa-74, [2-(4-Acetamidophenylsulfanyl)-7-hydroxy-quinazolin-4-yl]-(5-methyl-2H-pyrazol-3-yl)-amine] | 1000 to 7000 |  | < 100 | 246 to 248 °C | 1000 to 6000
Cc1cc(Nc2nc(Sc3ccc(NC(=O)CCN(C)C)cc3)nc3ccccc23)n[nH]1 [IIa-71, {2-[4-(3-Dimethylamino-propionylamino)-phenylsulfanyl]-quinazolin-4-yl}-(5-methyl-2H-pyrazol-3-yl)-amine] | 1000 to 7000 |  | < 100 | 280 °C (dec.) | 1000 to 6000
Cc1ccc(Nc2nc(Nc3cc(C4CC4)[nH]n3)c3ccccc3n2)cc1C [IIc-33, (5-Cyclopropyl-2H-pyrazol-3-yl)-[2-(3,4-dimethylphenylamino)-quinazolin-4-yl]-amine] | 100 to 1000 | < 100 | < 100 | 245 to 246 °C | 
Cc1cc(Nc2nc(Nc3ccc(NC(=O)C(C)C)cc3)nc3ccccc23)n[nH]1 [IIc-68, [2-(4-Isobutyrylamino-phenylamino)-quinazolin-4-yl]-(5-methyl-2H-pyrazol-3-yl)-amine] | 1000 to 7000 |  | < 100 | 176 to 179 °C | 1000 to 6000
Cc1cc(Nc2nc(Sc3ccc(NS(=O)(=O)C(C)C)cc3)nc3ccccc23)n[nH]1 [IIa-48, [2-(4-Isopropanesulfonylamino-phenylsulfanyl)-quinazolin-4-yl]-(5-methyl-2H-pyrazol-3-yl)-amine] | 100 to 1000 |  | < 100 | 294 to 297 °C | 1000 to 6000

Further lines, results first:

Ki (GSK-3β (AA 1-420)) [nM] | Ki (human Src kinase; read-out: Ki value on SRC) [nM] | Ki (Aurora-2) [nM] | melting point | Ki (human Src kinase; read-out: Ki value for SRC) [nM] | Structure (SMILES)
< 100 | < 100 | < 100 | 218 °C |  | Cc1cc(Nc2nc(NCc3cccnc3)nc3ccccc23)n[nH]1 [IIc-10, (5-Methyl-2H-pyrazol-3-yl)-[2-(pyridin-3-ylmethylamino)-quinazolin-4-yl]-amine]
< 100 | < 100 | < 100 | 255 to 257 °C |  | Clc1ccccc1Sc1nc(Nc2cc(C3CC3)[nH]n2)c2ccccc2n1 [IIa-32, [2-(2-Chlorophenylsulfanyl)-quinazolin-4-yl]-(5-cyclopropyl-2H-pyrazol-3-yl)-amine]
100 to 1000 | < 100 | < 100 | 117 °C |  | Cc1cccc(Nc2nc(Nc3cc(C4CC4)[nH]n3)c3ccccc3n2)c1 [IIc-19, (5-Cyclopropyl-2H-pyrazol-3-yl)-[2-(3-methylphenylamino)-quinazolin-4-yl]-amine]
100 to 1000 | < 100 | < 100 | > 188 °C (dec.) |  | CC(=O)Nc1ccc(Nc2nc(Nc3cc(C4CC4)[nH]n3)c3ccccc3n2)cc1C [IIc-23, [2-(4-Acetamido-3-methylphenylamino)-quinazolin-4-yl]-(5-cyclopropyl-2H-pyrazol-3-yl)-amine]
< 100 | < 100 | < 100 | 233 to 236 °C |  | c1ccc(Sc2nc(Nc3cc(C4CC4)[nH]n3)c3ccccc3n2)cc1 [IIa-21, (5-Cyclopropyl-2H-pyrazol-3-yl)-(2-phenylsulfanyl-quinazolin-4-yl)-amine]
100 to 1000 | < 100 | < 100 | 211 to 213 °C |  | c1ccc(COCc2nc(Nc3cc(C4CC4)[nH]n3)c3ccccc3n2)cc1 [IId-2, (2-Benzyloxymethyl-quinazolin-4-yl)-(5-cyclopropyl-2H-pyrazol-3-yl)-amine]
< 100 | < 100 | < 100 | 250 to 253 °C |  | Fc1ccc(Sc2nc(Nc3cc(C4CC4)[nH]n3)c3ccccc3n2)c(F)c1 [IIa-28, (5-Cyclopropyl-2H-pyrazol-3-yl)-[2-(2,4-difluorophenylsulfanyl)-quinazolin-4-yl]-amine]
< 100 | < 100 | < 100 | 211 °C |  | Cc1cc(Nc2nc(NCC3CCCCC3)nc3ccccc23)n[nH]1 [IIc-8, (2-Cyclohexylmethylamino-quinazolin-4-yl)-(5-methyl-2H-pyrazol-3-yl)-amine]
100 to 1000 | < 100 | < 100 | 186 to 188 °C |  | CCc1cccc(Nc2nc(Nc3cc(C4CC4)[nH]n3)c3ccccc3n2)c1 [IIc-41, (5-Cyclopropyl-2H-pyrazol-3-yl)-[2-(3-ethylphenylamino)-quinazolin-4-yl]-amine]
100 to 1000 | < 100 | < 100 | 203 °C |  | c1ccc(OCCNc2nc(Nc3cc(C4CC4)[nH]n3)c3ccccc3n2)cc1 [IIc-34, (5-Cyclopropyl-2H-pyrazol-3-yl)-[2-(2-phenoxyethylamino)-quinazolin-4-yl]-amine]
100 to 1000 | < 100 | < 100 | 144 °C |  | COc1ccc(Nc2nc(Nc3cc(C4CC4)[nH]n3)c3ccccc3n2)cc1OC [IIc-43, (5-Cyclopropyl-2H-pyrazol-3-yl)-[2-(3,4-dimethoxyphenylamino)-quinazolin-4-yl]-amine]
< 100 | < 100 | < 100 | 212 °C |  | c1csc(CNc2nc(Nc3cc(C4CC4)[nH]n3)c3ccccc3n2)c1 [IIc-35, (5-Cyclopropyl-2H-pyrazol-3-yl)-[2-(thiophen-2-methylamino)-quinazolin-4-yl]-amine]
< 100 | < 100 | < 100 | 199 to 204 °C |  | c1ccc2c(Nc3cc(C4CC4)[nH]n3)nc(Nc3ccc4c(c3)CCC4)nc2c1 [IIc-21, (5-Cyclopropyl-2H-pyrazol-3-yl)-[2-(indan-5-ylamino)-quinazolin-4-yl]-amine]
